# Target: T1, Endogenous BCL6 (Homo sapiens, UniProt P41182)
# T1 construct: Endogenous BCL6 was tagged with the 11-amino acid SmBiT through CRISPR/Cas9 gene editing; endogenous in cells; host or cells: SU-DHL-4 (CRISPR/Cas9 knock-in single cell clone)
# Assay: HiBiT cellular degradation assay in SU-DHL-4 cells
# Type: cell-based
# Details: 24 hours of compound treatment, concentration to reach 50% degradation
# Protocol: DC50 (concentration to reach 50% degradation) values were determined from a cellular degradation assay (HiBiT, Promega™) in Su-DHL-4 cells (Table 1). Endogenous BCL6 was tagged with the 11-amino acid SmBiT through CRISPR/Cas9 gene editing and single cell clone selection. After 24 hours of compound treatment, cells were lysed and incubated with LgBiT protein to reconstitute intact nanoluciferase. Substrate was then added and relative luciferase units were measured. Degradation levels for each treatment were taken as a percentage compared to the control, 100% DMSO (Prism).
row,DC50 [nM],Structure (SMILES)
1,25,"CNC(=O)CCn1c(=O)c(=O)n(C)c2ccc(Nc3nc(N4C[C@H](C)C[C@H](C)C4)ncc3Cl)cc21 [Compound 1, 3-(7-((5-chloro-2-((3S,5R)-3,5-dimethylpiperidin-1-yl)pyrimidin-4-yl)amino)-4-methyl-2,3-dioxo-3,4-dihydroquinoxalin-1(2H)-yl)-N-methylpropanamide]"
2,> 10000,C[C@@H]1CN(c2ncc(Cl)c(Nc3ccc4c(c3)n(CCC(=O)NC3CN(C)C3)c(=O)c(=O)n4C)n2)C[C@H](C)C1(F)F [Compound 8]
3,220,C[C@@H]1CN(c2ncc(Cl)c(Nc3ccc4c(c3)n(CCC(=O)NC3CCN(C)C3)c(=O)c(=O)n4C)n2)C[C@H](C)C1(F)F (stereo partly shown) [Compound 9]
4,3100,C[C@@H]1CN(c2ncc(Cl)c(Nc3ccc4c(c3)n(CCC(=O)NCC3CN(C)C3)c(=O)c(=O)n4C)n2)C[C@H](C)C1(F)F [Compound 11]
5,1800,C[C@@H]1CN(c2ncc(Cl)c(Nc3ccc4c(c3)n(CCC(=O)NCC3CCN(C)C3)c(=O)c(=O)n4C)n2)C[C@H](C)C1(F)F (stereo partly shown) [Compound 12]
6,450,C[C@@H]1CN(c2ncc(Cl)c(Nc3ccc4c(c3)n(CCC(=O)NCCN(C)C)c(=O)c(=O)n4C)n2)C[C@H](C)C1(F)F [Compound 18]
7,500,C[C@@H]1CN(c2ncc(Cl)c(Nc3ccc4c(c3)n(CCC(=O)NCCCN(C)C)c(=O)c(=O)n4C)n2)C[C@H](C)C1(F)F [Compound 19]
8,32,C[C@@H]1CN(c2ncc(Cl)c(Nc3ccc4c(c3)n(CCC(=O)NC3COC3)c(=O)c(=O)n4C)n2)C[C@H](C)C1(F)F [Compound 28]
9,71,C[C@@H]1CN(c2ncc(Cl)c(Nc3ccc4c(c3)n(CCC(=O)NC3CCOC3)c(=O)c(=O)n4C)n2)C[C@H](C)C1(F)F (stereo partly shown) [Compound 29]
10,160,C[C@@H]1CN(c2ncc(Cl)c(Nc3ccc4c(c3)n(CCC(=O)NCC3COC3)c(=O)c(=O)n4C)n2)C[C@H](C)C1(F)F [Compound 31]
11,150,C[C@@H]1CN(c2ncc(Cl)c(Nc3ccc4c(c3)n(CCC(=O)NCC3CCOC3)c(=O)c(=O)n4C)n2)C[C@H](C)C1(F)F (stereo partly shown) [Compound 32]
12,14,"CNC(=O)Cn1c(=O)c(=O)n(C)c2ccc(Nc3nc(N4C[C@@H](C)C(F)(F)[C@@H](C)C4)ncc3Cl)cc21 [Compound 56, 2-(7-((5-chloro-2-((3R,5S)-4,4-difluoro-3,5-dimethylpiperidin-1-yl)pyrimidin-4-yl)amino)-4-methyl-2,3-dioxo-3,4-dihydroquinoxalin-1(2H)-yl)-N-methylacetamide]"
13,340,C[C@@H]1CN(c2ncc(Cl)c(Nc3ccc4c(c3)n(CC(=O)NCCN(C)C)c(=O)c(=O)n4C)n2)C[C@H](C)C1(F)F [Compound 57]
14,870,C[C@@H]1CN(c2ncc(Cl)c(Nc3ccc4c(c3)n(CC(=O)NC3CN(C)C3)c(=O)c(=O)n4C)n2)C[C@H](C)C1(F)F [Compound 58]
15,970,C[C@@H]1CN(c2ncc(Cl)c(Nc3ccc4c(c3)n(CC(=O)NC3CCN(C)C3)c(=O)c(=O)n4C)n2)C[C@H](C)C1(F)F (stereo partly shown) [Compound 59]
16,1120,C[C@@H]1CN(c2ncc(Cl)c(Nc3ccc4c(c3)n(CC(=O)NC3CCN(C)CC3)c(=O)c(=O)n4C)n2)C[C@H](C)C1(F)F [Compound 60]
17,100,CNC(=O)C(C)(C)Cn1c(=O)c(=O)n(C)c2ccc(Nc3nc(N4C[C@@H](C)C(F)(F)[C@@H](C)C4)ncc3Cl)cc21 [Compound 68]
18,130,C[C@@H]1CN(c2ncc(Cl)c(Nc3ccc4c(c3)n(CCC(=O)NCC(C)(C)O)c(=O)c(=O)n4C)n2)C[C@H](C)C1(F)F [Compound 73]
19,290,CNC(=O)[C@H]1C[C@@H](n2c(=O)c(=O)n(C)c3ccc(Nc4nc(N5C[C@@H](C)C(F)(F)[C@@H](C)C5)ncc4Cl)cc32)C1 [Compound 75-1]
20,100,CNC(=O)[C@H]1C[C@H](n2c(=O)c(=O)n(C)c3ccc(Nc4nc(N5C[C@@H](C)C(F)(F)[C@@H](C)C5)ncc4Cl)cc32)C1 [Compound 75-2]

row,DC50 [nM],Structure (SMILES)
1,> 10000,CNC(=O)CCn1c(=O)c(=O)n(C)c2ccc(Nc3nc(N4C[C@H](CCN)C(F)(F)[C@H](C)C4)ncc3Cl)cc21 [Compound 80]
2,250,CNC(=O)CCn1c(=O)c(=O)n(C)c2ccc(Nc3nc(N4C[C@@H](CCN)C(F)(F)[C@@H](C)C4)ncc3Cl)cc21 [Compound 81]
3,84,CNC(=O)CCn1c(=O)c(=O)n(C)c2ccc(Nc3nc(N4C[C@@H](C)C(F)(F)[C@@H](N)C4)ncc3Cl)cc21 [Compound 82]
4,920,CNC(=O)CCn1c(=O)c(=O)n(C)c2ccc(Nc3nc(N4C[C@@H](N)C(F)(F)[C@@H](C)C4)ncc3Cl)cc21 [Compound 83]
5,94,CNC(=O)CCn1c(=O)c(=O)n(C)c2ccc(Nc3nc(N4C[C@@H](O)C(F)(F)[C@@H](C)C4)ncc3Cl)cc21 [Compound 85]
6,120,CNC(=O)Cn1c(=O)c(=O)n(C)c2ccc(Nc3nc(N4C[C@@H](C)C(F)(F)[C@@H](N)C4)ncc3Cl)cc21 [Compound 86]
7,230,CNC(=O)Cn1c(=O)c(=O)n(C)c2ccc(Nc3nc(N4C[C@@H](N)C(F)(F)[C@@H](C)C4)ncc3Cl)cc21 [Compound 87]
8,47,C[C@@H]1C[C@H](C)CN(c2ncc(Cl)c(Nc3ccc4c(c3)n(CC[C@@H](C)O)c(=O)c(=O)n4C)n2)C1 [Compound 107]
9,43,C[C@@H]1CN(c2ncc(Cl)c(Nc3ccc4c(c3)n(C[C@H]3C[C@H](O)C3)c(=O)c(=O)n4C)n2)C[C@H](C)C1F (stereo partly shown) [Compound 108]
10,4,C[C@@H]1CN(c2ncc(Cl)c(Nc3ccc4c(c3)n(C[C@H]3C[C@@H](O)C3)c(=O)c(=O)n4C)n2)C[C@H](C)C1F (stereo partly shown) [Compound 109]
11,18,C[C@@H]1CN(c2ncc(Cl)c(Nc3ccc4c(c3)n(CCC3(O)CC3)c(=O)c(=O)n4C)n2)C[C@H](C)C1F (stereo partly shown) [Compound 110]
12,34,C[C@@H]1CN(c2ncc(Cl)c(Nc3ccc4c(c3)n(CCC3(O)CCC3)c(=O)c(=O)n4C)n2)C[C@H](C)C1F (stereo partly shown) [Compound 111]
13,25,C[C@@H]1CN(c2ncc(Cl)c(Nc3ccc4c(c3)n(CCC3(O)COC3)c(=O)c(=O)n4C)n2)C[C@H](C)C1F (stereo partly shown) [Compound 112]
14,130,C[C@@H]1CN(c2ncc(Cl)c(Nc3ccc4c(c3)n(C[C@@H]3CNC(=O)O3)c(=O)c(=O)n4C)n2)C[C@H](C)[C@@H]1F [Compound 117]
15,120,C[C@@H]1CN(c2ncc(Cl)c(Nc3ccc4c(c3)n(C[C@@H]3COC(=O)N3)c(=O)c(=O)n4C)n2)C[C@H](C)[C@@H]1F [Compound 118]
16,13,C[C@@H]1CN(c2nc(Nc3ccc4c(c3)n(CCC3(O)CC3)c(=O)c(=O)n4C)c(Cl)cc2C#N)C[C@H](C)[C@@H]1F [Compound 119]
17,1900,CNC(=O)CCn1c(=O)c(=O)n(C)c2ccc(Nc3nc(N4C[C@H](CCO)C(F)(F)[C@H](C)C4)c(C#N)cc3Cl)cc21 [Compound 120]
18,71,CNC(=O)CCn1c(=O)c(=O)n(C)c2ccc(Nc3nc(N4C[C@@H](CCO)C(F)(F)[C@@H](C)C4)c(C#N)cc3Cl)cc21 [Compound 121]
19,19,C[C@@H]1CN(c2ncc(Cl)c(Nc3ccc4c(c3)n(CC[C@@H](C)O)c(=O)c(=O)n4C)n2)C[C@H](C)[C@@H]1F [Compound 122]
20,23,C[C@H](O)CCn1c(=O)c(=O)n(C)c2ccc(Nc3nc(N4C[C@@H](C)[C@@H](F)[C@@H](C)C4)ncc3Cl)cc21 [Compound 123]

# Source: patent US20260001862A1, “QUINOXALINEDIONE AND PYRIDO[2,3-B]PYRAZINE-2,3-DIONE B CELL LYMPHOMA 6 (BCL6) DEGRADERS AND USES THEREOF” (DANA-FARBER CANCER INSTITUTE, INC., priority 2022, published 2026)
